Experimental data from PMC5469750, “Antibacterial and detoxifying activity of NZ17074 analogues with multi-layers of selective antimicrobial actions against Escherichia coli and Salmonella enteritidis” (Scientific Reports, 2017).
Values after ≈ are worked out from the molar mass of the structure shown. Where a SMILES comes first, the peptide text is derived from it. Bridges are numbered along the chain shown (N, C = ends). Where no end group is shown, it is not given here.

Legend:
P. aeruginosa CICC21630 = type: cell-based, Pseudomonas aeruginosa; conditions: CICC21630
Method: (§1) The antimicrobial activity of peptides was determined by the microbroth dilution method. The bacterial strains were incubated in Mueller-Hinton (MH) medium at 37 °C overnight until the mid-log phase (OD600 nm reading of 0.5). Bacteria were diluted to 1 × 10^5 CFU/ml and added into 96-well plates, followed by the addition of serial dilutions of peptides (from 0.0625 to 128 μg/ml). The plates were incubated at 37 °C for 18–24 h. The MIC value was determined as the lowest peptide concentration at which no bacterial growth was observed. All tests were conducted in triplicate.

S. enteritidis CVCC3377 [1] = type: cell-based, Salmonella enteritidis; conditions: CVCC3377
Method: as §1

[2] = test system: Candida albicans CGMCC2.2411; type: cell-based; conditions: CGMCC2.2411
E. coli CVCC1515 = type: cell-based, Escherichia coli; conditions: CVCC1515
Method: as §1

[3] = test system: Salmonella typhimurium ATCC14028; type: cell-based; conditions: ATCC14028
Method: as §1

[4] = test system: Enterococcus faecium CMCC1.2136; type: cell-based; conditions: CMCC1.2136
Method: as §1

S. pullorum CVCC1802 = type: cell-based; conditions: CVCC1802
Method: as §1

S. suis CVCC606 = type: cell-based
Method: as §1

S. pullorum CVCC1789 = type: cell-based; conditions: CVCC1789
Method: as §1

Escherichia coli CVCC195 = type: cell-based; conditions: CVCC195
Method: as §1

[5] = test system: Bacillus subtilis ATCC6633; type: cell-based; conditions: ATCC6633
Method: as §1

[6] = test system: Staphylococcus aureus ATCC43300; type: cell-based; conditions: ATCC43300
Method: as §1

[7] = test system: Listeria ivanovii ATCC19119; type: cell-based; conditions: ATCC19119
Method: as §1

[8] = test system: Pseudomonas aeruginosa CICC10419; type: cell-based; conditions: CICC10419
Method: as §1

S. enteritidis CVCC3377 [9] = type: cell-based, Salmonella enteritidis; conditions: CVCC3377, 3 h, 1
Method: (§2) Radioactive precursors were added into cells (1 μCi/ml) and shaken at 37 °C for 20 min. Ice-cold 25% trichloroacetic acid (TCA) was added and placed on ice for 30 min. The cells were centrifuged and washed twice with ice-cold 25% TCA. After drying, the samples were mixed with scintillation fluid and counted for their radioactivity using a MicroBeta 1450 scintillation counter (Perkin Elmer)[62].

E. coli CVCC195 = type: cell-based, Escherichia coli; conditions: CVCC195, 3 h, 1
Method: as §2

S. aureus ATCC25923 = type: cell-based, Staphylococcus aureus; conditions: ATCC25923
Method: as §1

S. choleraesuis CVCC503 = type: cell-based; conditions: CVCC503
Method: as §1

[10] = LPS binding, BODIPY-TR-cadaverine (BC) displacement; conditions: negative control; 50 mM Tris buffer pH 7.4
Method: Equal volumes of 40 μg/ml LPS and 10 μM BC in 50 mM Tris buffer (pH 7.4) were mixed, added into 96-well plates and incubated in the dark for 4 h at room temperature. […] Fluorescence was then measured using a microplate reader (excitation/emission, 580/620 nm). The occupancy rate was calculated by the following equation: BC displacement rate (%) = (1 − (F0 − F)/(F0 − Fmax)) × 100, wherein F0 is the fluorescence intensity of the solution of BC alone; Fmax is the fluorescence intensity in the presence of LPS at the saturation concentration, and F is the intensity of LPS:BC mixtures at varying displacer concentrations.

[11] = test system: E. coli CICC21530 (serotype O157:H7); type: cell-based, Escherichia coli; conditions: microbroth dilution, MH medium, 1 × 10^5 CFU/ml, 37 °C, 18–24 h; representative of three independent experiments
Method: as §1

Compound | MIC (P. aeruginosa CICC21630) [µg/mL] | MIC (S. enteritidis CVCC3377 [1]) [µg/mL] | MIC [2] [µg/mL] | MIC (E. coli CVCC1515) [µg/mL] | MIC [3] [µg/mL] | MIC [4] [µg/mL] | MIC (S. pullorum CVCC1802) [µg/mL] | MIC (S. suis CVCC606) [µg/mL] | MIC (S. pullorum CVCC1789) [µg/mL] | MIC (Escherichia coli CVCC195) [µg/mL] | MIC [5] [µg/mL] | MIC [6] [µg/mL] | MIC [7] [µg/mL] | MIC [8] [µg/mL] | MIC (S. aureus ATCC25923) [µg/mL] | MIC (S. choleraesuis CVCC503) [µg/mL] | further results
CC(C)[C@@H]1NC(=O)[C@H](C)NC(=O)[C@H](CC(N)=O)NC(=O)[C@H](CCCNC(=N)N)NC(=O)[C@H](Cc2ccc(O)cc2)NC(=O)[C@H](C(C)C)NC(=O)[C@@H]2CSSC[C@H](NC(=O)[C@H](C(C)C)NC(=O)[C@H](CCCNC(=N)N)NC1=O)C(=O)N[C@@H](Cc1c[nH]cn1)C(=O)N[C@@H](CCCNC(=N)N)C(=O)N[C@@H](CCCNC(=N)N)C(=O)N[C@H](C(=O)N[C@@H](CC(N)=O)C(=O)O)CSSC[C@H](NC(=O)[C@H](Cc1ccccc1)NC(=O)[C@H](C)N)C(=O)N[C@@H](Cc1c[nH]c3ccccc13)C(=O)N[C@@H](CC(N)=O)C(=O)N[C@@H](C(C)C)C(=O)N2 [N2] (H-AFCWNVCVYRNAVRVCHRRCN-OH; disulfide 3-20, 7-16) | 2 (≈ 0.779 µM) | 0.125 (≈ 0.0487 µM) | 32 (≈ 12.5 µM) | 0.5 (≈ 0.195 µM) | 1 (≈ 0.39 µM) | 4 (≈ 1.56 µM) | 0.25 (≈ 0.0974 µM) | 16 (≈ 6.24 µM) | 0.5 (≈ 0.195 µM) | 0.25 (≈ 0.0974 µM) | 0.5 (≈ 0.195 µM) | 16 (≈ 6.24 µM) | 4 (≈ 1.56 µM) | 2 (≈ 0.779 µM) | 0.25 (≈ 0.0974 µM) | – | inhibition of DNA synthesis (3H-thymidine) (S. enteritidis CVCC3377 [9]): 35.5%; inhibition of protein synthesis (3H-leucine) (S. enteritidis CVCC3377 [9]): 17.0%; inhibition of 3H-thymidine incorporation (DNA synthesis) (E. coli CVCC195): 28.6%; inhibition of 3H-uridine incorporation (RNA synthesis) (E. coli CVCC195): 18.7%
CC(C)[C@@H]1NC(=O)CNC(=O)[C@H](CC(N)=O)NC(=O)[C@H](CCCNC(=N)N)NC(=O)[C@H](Cc2ccc(O)cc2)NC(=O)[C@H](C(C)C)NC(=O)[C@@H]2CSSC[C@H](NC(=O)[C@H](C(C)C)NC(=O)[C@H](CCCNC(=N)N)NC1=O)C(=O)N[C@@H](Cc1c[nH]cn1)C(=O)N[C@@H](CCCNC(=N)N)C(=O)N[C@@H](CCCNC(=N)N)C(=O)N[C@H](C(=O)N[C@@H](CC(N)=O)C(=O)O)CSSC[C@H](NC(=O)[C@H](Cc1ccccc1)NC(=O)CN)C(=O)N[C@@H](CCCCN)C(=O)N[C@@H](C)C(=O)N[C@@H](C(C)C)C(=O)N2 [N3] (H-GFCKAVCVYRNGVRVCHRRCN-OH; disulfide 3-20, 7-16) | 16 (≈ 6.57 µM) | 0.5 (≈ 0.205 µM) | >16 | 1 (≈ 0.41 µM) | 4 (≈ 1.64 µM) | 8 (≈ 3.28 µM) | 1 (≈ 0.41 µM) | 16 (≈ 6.57 µM) | 2 (≈ 0.821 µM) | 1 (≈ 0.41 µM) | 2 (≈ 0.821 µM) | >16 | 8 (≈ 3.28 µM) | >16 | 0.25 (≈ 0.103 µM) | – | –
CC(C)[C@@H]1NC(=O)CNC(=O)[C@H](CC(N)=O)NC(=O)[C@H](CCCNC(=N)N)NC(=O)[C@H](Cc2ccc(O)cc2)NC(=O)[C@H](C(C)C)NC(=O)[C@@H]2CSSC[C@H](NC(=O)[C@H](C(C)C)NC(=O)[C@H](CCCNC(=N)N)NC1=O)C(=O)N[C@@H](Cc1c[nH]cn1)C(=O)N[C@@H](CCCNC(=N)N)C(=O)N[C@@H](CCCNC(=N)N)C(=O)N[C@H](C(=O)N[C@@H](CC(N)=O)C(=O)O)CSSC[C@H](NC(=O)[C@H](Cc1ccccc1)NC(=O)CNC(=O)[C@@H](N)Cc1c[nH]c3ccccc13)C(=O)N[C@@H](Cc1c[nH]c3ccccc13)C(=O)N[C@@H](CC(N)=O)C(=O)N[C@@H](C(C)C)C(=O)N2 [N4] (H-WGFCWNVCVYRNGVRVCHRRCN-OH; disulfide 4-21, 8-17) | 4 (≈ 1.47 µM) | 0.25 (≈ 0.0918 µM) | – | 1 (≈ 0.367 µM) | 2 (≈ 0.734 µM) | – | 2 (≈ 0.734 µM) | – | 1 (≈ 0.367 µM) | 1 (≈ 0.367 µM) | 1 (≈ 0.367 µM) | 8 (≈ 2.94 µM) | – | – | 1 (≈ 0.367 µM) | – | –
CC(C)[C@@H]1NC(=O)CNC(=O)[C@H](CC(N)=O)NC(=O)[C@H](CCCNC(=N)N)NC(=O)[C@H](Cc2ccc(O)cc2)NC(=O)[C@H](C(C)C)NC(=O)[C@@H](NC(=O)[C@@H](NC(=O)[C@H](CC(N)=O)NC(=O)[C@H](Cc2c[nH]c3ccccc23)NC(=O)[C@H](C)NC(=O)[C@H](Cc2ccccc2)NC(=O)CN)C(C)C)CSSC[C@@H](C(=O)N[C@@H](Cc2c[nH]cn2)C(=O)N[C@@H](CCCNC(=N)N)C(=O)N[C@@H](CCCNC(=N)N)C(=O)N[C@@H](C)C(=O)N[C@@H](CC(N)=O)C(=O)O)NC(=O)[C@H](C(C)C)NC(=O)[C@H](CCCNC(=N)N)NC1=O [N6] (H-GFAWNVCVYRNGVRVCHRRAN-OH; disulfide 7-16) | 4 (≈ 1.62 µM) | 0.25 (≈ 0.101 µM) | 64 (≈ 25.8 µM) | 1 (≈ 0.404 µM) | 2 (≈ 0.808 µM) | 4 (≈ 1.62 µM) | 0.5 (≈ 0.202 µM) | 16 (≈ 6.46 µM) | 0.5 (≈ 0.202 µM) | 0.5 (≈ 0.202 µM) | 0.5 (≈ 0.202 µM) | 16 (≈ 6.46 µM) | – | 8 (≈ 3.23 µM) | 0.25 (≈ 0.101 µM) | 2 (≈ 0.808 µM) | inhibition of DNA synthesis (3H-thymidine) (S. enteritidis CVCC3377 [9]): 61.8%; inhibition of RNA biosynthesis (3H-uridine) (S. enteritidis CVCC3377 [9]): 5.7%; inhibition of 3H-thymidine incorporation (DNA synthesis) (E. coli CVCC195): 43.8%
CC(C)[C@@H]1NC(=O)CNC(=O)[C@H](CC(N)=O)NC(=O)[C@H](CCCNC(=N)N)NC(=O)[C@H](Cc2ccc(O)cc2)NC(=O)[C@H](C(C)C)NC(=O)[C@H](C)NC(=O)[C@H](C(C)C)NC(=O)[C@H](CC(N)=O)NC(=O)[C@H](Cc2c[nH]c3ccccc23)NC(=O)[C@@H](NC(=O)[C@H](Cc2ccccc2)NC(=O)CN)CSSC[C@@H](C(=O)N[C@@H](CC(N)=O)C(=O)O)NC(=O)[C@H](CCCNC(=N)N)NC(=O)[C@H](CCCNC(=N)N)NC(=O)[C@H](Cc2c[nH]cn2)NC(=O)[C@H](C)NC(=O)[C@H](C(C)C)NC(=O)[C@H](CCCNC(=N)N)NC1=O [N7] (H-GFCWNVAVYRNGVRVAHRRCN-OH; disulfide 3-20) | >64 | 0.5 (≈ 0.202 µM) | >16 | 2 (≈ 0.808 µM) | 8 (≈ 3.23 µM) | 2 (≈ 0.808 µM) | 4 (≈ 1.62 µM) | 8 (≈ 3.23 µM) | 4 (≈ 1.62 µM) | 2 (≈ 0.808 µM) | 2 (≈ 0.808 µM) | >64 | 2 (≈ 0.808 µM) | >64 | 0.5 (≈ 0.202 µM) | 16 (≈ 6.46 µM) | –
CC1(C)S[C@@H]2[C@H](NC(=O)[C@H](N)c3ccccc3)C(=O)N2[C@H]1C(=O)O [ampicillin] | – | – | – | – | – | – | – | – | – | – | – | – | – | – | – | – | BC displacement / binding to LPS [10]: did not displace BC
GFAWNVAVYRNGVRVAHRRAN [N8] | >128 | 1 | – | 16 | >64 | 16 | 32 | >128 | >128 | 32 | 4 | >64 | – | >128 | 2 | >64 | MIC [11]: 16 µg/mL
GFWNVVYRNGVRVHRRN [N5] | >128 | 4 | >128 | 128 | 128 | 64 | >128 | >128 | >128 | 64 | 64 | >128 | 128 | >128 | 2 | >128 | MIC [11]: 64 µg/mL
